Key:
[1] = target: T1, Glycogen synthase kinase-3 alpha (Homo sapiens, UniProt P49840); experiment: Inhibition of GSK3alpha
Target sequence in this assay (P49840 whole entry): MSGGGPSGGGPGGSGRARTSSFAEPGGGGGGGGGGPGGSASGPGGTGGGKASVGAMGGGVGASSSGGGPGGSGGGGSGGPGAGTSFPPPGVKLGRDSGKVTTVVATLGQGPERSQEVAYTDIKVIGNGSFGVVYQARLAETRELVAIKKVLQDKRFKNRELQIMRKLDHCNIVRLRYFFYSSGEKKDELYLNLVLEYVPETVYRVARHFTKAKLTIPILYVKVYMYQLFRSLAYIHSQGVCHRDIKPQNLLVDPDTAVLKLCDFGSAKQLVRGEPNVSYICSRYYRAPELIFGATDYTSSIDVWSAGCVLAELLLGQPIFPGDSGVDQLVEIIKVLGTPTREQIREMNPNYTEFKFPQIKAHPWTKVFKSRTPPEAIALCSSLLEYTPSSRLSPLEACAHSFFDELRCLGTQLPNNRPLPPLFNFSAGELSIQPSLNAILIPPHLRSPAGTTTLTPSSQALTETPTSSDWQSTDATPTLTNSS

[2] = target: T2, Glycogen synthase kinase-3 beta (Homo sapiens, UniProt P49841); experiment: Inhibition of GSK3-beta
Target sequence in this assay (P49841 whole entry): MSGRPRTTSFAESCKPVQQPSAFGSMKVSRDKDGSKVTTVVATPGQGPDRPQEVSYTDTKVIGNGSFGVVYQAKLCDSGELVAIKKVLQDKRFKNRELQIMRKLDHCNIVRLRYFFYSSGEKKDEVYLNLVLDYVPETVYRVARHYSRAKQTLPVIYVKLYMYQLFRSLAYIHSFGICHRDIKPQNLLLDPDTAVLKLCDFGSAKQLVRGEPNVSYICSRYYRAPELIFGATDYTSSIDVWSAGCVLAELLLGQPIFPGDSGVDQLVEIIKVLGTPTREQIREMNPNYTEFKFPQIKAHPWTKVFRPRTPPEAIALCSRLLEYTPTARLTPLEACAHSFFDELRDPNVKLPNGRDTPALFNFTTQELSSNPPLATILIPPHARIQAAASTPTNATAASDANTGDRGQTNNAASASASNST

[3] = target: T1, Glycogen synthase kinase-3 alpha; experiment: Inhibition of GSK3-alpha at 10 uM
Target sequence in this assay (P49840 2-483 limits assumed): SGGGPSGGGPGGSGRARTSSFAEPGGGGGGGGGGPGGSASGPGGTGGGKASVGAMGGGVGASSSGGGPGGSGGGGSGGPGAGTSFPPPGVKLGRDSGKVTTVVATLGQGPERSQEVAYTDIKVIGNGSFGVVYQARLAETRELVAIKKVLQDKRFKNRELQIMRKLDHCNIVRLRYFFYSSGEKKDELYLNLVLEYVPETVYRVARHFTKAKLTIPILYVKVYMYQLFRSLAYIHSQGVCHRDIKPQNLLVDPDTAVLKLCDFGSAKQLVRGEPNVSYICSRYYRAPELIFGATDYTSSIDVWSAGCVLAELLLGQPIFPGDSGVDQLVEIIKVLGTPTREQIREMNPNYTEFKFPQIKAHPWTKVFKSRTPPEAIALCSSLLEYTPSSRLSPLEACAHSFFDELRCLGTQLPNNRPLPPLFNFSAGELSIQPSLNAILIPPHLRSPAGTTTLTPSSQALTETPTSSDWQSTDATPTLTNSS

[4] = target: T2, Glycogen synthase kinase-3 beta; experiment: Inhibition of GSK3-beta at 10 uM
Target sequence in this assay (P49841 whole entry, looked up): as the sequence (P49841 whole entry) above

[5] = target: T3, Aurora kinase A (Homo sapiens) (UniProt O14965); experiment: Inhibition of Aurora A at 10 uM
T3 sequence (whole entry): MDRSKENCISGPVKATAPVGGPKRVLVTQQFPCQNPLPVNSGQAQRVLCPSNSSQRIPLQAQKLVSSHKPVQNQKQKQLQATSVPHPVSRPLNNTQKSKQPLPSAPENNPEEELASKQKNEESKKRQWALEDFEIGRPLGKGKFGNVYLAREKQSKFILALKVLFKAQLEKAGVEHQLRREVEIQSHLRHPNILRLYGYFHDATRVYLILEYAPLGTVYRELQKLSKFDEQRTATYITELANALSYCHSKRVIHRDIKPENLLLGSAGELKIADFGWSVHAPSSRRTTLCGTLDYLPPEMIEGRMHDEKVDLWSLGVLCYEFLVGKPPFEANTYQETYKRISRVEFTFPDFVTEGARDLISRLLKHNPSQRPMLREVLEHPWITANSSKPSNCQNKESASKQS

[6] = Clearance in rat at 5 mg/kg, iv; type: ADME, organism-based; parameters: dose 5 mg/kg, route intravenous; conditions: in vivo
[7] = Cmax in rat at 20 mg/kg, po; type: ADME, organism-based; parameters: dose 20 mg/kg, route oral; conditions: in vivo
[8] = Cmax in rat at 5 mg/kg, iv; type: ADME, organism-based; parameters: dose 5 mg/kg, route intravenous; conditions: in vivo
[9] = Oral bioavailability in rat at 20 mg/kg; type: ADME, organism-based; conditions: in vivo
[10] = Tmax in rat at 20 mg/kg, po; type: ADME, organism-based; parameters: dose 20 mg/kg, route oral; conditions: in vivo
[11] = AUC in rat at 20 mg/kg, po; type: ADME, organism-based; parameters: dose 20 mg/kg, route oral; conditions: plasma
[12] = AUC in rat at 5 mg/kg, iv; type: ADME, organism-based; parameters: dose 5 mg/kg, route intravenous; conditions: plasma
[13] = Half life in rat at 5 mg/kg, iv; type: ADME, organism-based; parameters: dose 5 mg/kg, route intravenous; conditions: in vivo
[14] = Half life in rat at 20 mg/kg, po; type: ADME, organism-based; parameters: dose 20 mg/kg, route oral; conditions: in vivo
[15] = Volume of distribution at steady state in rat at 5 mg/kg, iv; type: ADME, organism-based; parameters: dose 5 mg/kg, route intravenous; conditions: in vivo, read-out: Vdss
Aurora kinase A = target: T4, Aurora kinase A (Homo sapiens, UniProt O14965); experiment: Inhibition of Aurora A
T4 sequence (O14965 whole entry): T3 sequence (whole entry)

Structure (SMILES)	IC50 [1] [nM]	IC50 [2] [nM]	other results
O=[N+]([O-])c1cnc(N[C@H]2CC[C@H](O)CC2)nc1Nc1ccccc1	172	281	–
O=C(O)c1ccc(Nc2ncc3nnn(C45CC6CC(CC(O)(C6)C4)C5)c3n2)cc1	66	51	–
O=[N+]([O-])c1cnc(N[C@H]2CC[C@H](O)CC2)nc1NC12CC3CC(CC(O)(C3)C1)C2	123	198	inhibition [5]: 33%
OC12CC3CC(C1)CC(Nc1nc(N[C@H]4CC[C@H](O)CC4)ncc1Br)(C3)C2	91	125	inhibition [5]: 69%
O=[N+]([O-])c1cnc(Nc2ccccc2)nc1Nc1ccccc1	–	2800	inhibition [3]: 52%
OC12CC3CC(C1)CC(Nc1nc(N[C@H]4CC[C@H](O)CC4)ncc1Cl)(C3)C2	133	230	inhibition [5]: 65%
OC12CC3CC(C1)CC(Nc1nc(N[C@H]4CC[C@H](O)CC4)ncc1C(F)(F)F)(C3)C2	61	41	inhibition [5]: 45%; clearance [6]: 4.2 mL/min/kg; Cmax [7]: 5700 ng/mL; Cmax [8]: 24200 ng/mL; bioavailability [9]: 34%; Tmax [10]: 0.5 h; AUC [11]: 27400 ng·h/mL; AUC [12]: 20100 ng·h/mL; half-life [13]: 3.7 h; half-life [14]: 6.1 h; Vd [15]: 0.3 L/kg
O=C(O)COc1ccc(Nc2ncc3nnn(C45CC6CC(CC(O)(C6)C4)C5)c3n2)cc1	96	169	–
O=c1[nH]c2cnc(Nc3ccccc3)nc2n1-c1ccccc1	–	–	inhibition [3]: -7%; inhibition [4]: 20%
CCn1c(=O)n(-c2ccccc2)c2nc(Nc3ccccc3)ncc21	–	> 10000	inhibition [3]: 73%; inhibition [4]: 78%
O=C(O)c1ccc(Nc2ncc([N+](=O)[O-])c(NC34CC5CC(CC(C5)C3)C4)n2)cc1	34	26	–
O=C(O)COc1ccc(Nc2ncc([N+](=O)[O-])c(Nc3ccccc3)n2)cc1	74	92	IC50 (Aurora kinase A): 85 nM
O=C(O)CCc1ccc(Nc2ncc([N+](=O)[O-])c(NC34CC5CC(CC(C5)C3)C4)n2)cc1	38	105	–
CCCCOC(=O)c1ccc(Nc2ncc3[nH]c(=O)n(-c4ccccc4)c3n2)cc1	–	–	inhibition [3]: 6%; inhibition [4]: -5%
O=C(O)c1cccc(Nc2ncc3[nH]c(=O)n(-c4ccccc4)c3n2)c1	–	–	inhibition [3]: 1%; inhibition [4]: 3%
O=C(O)c1ccc(Nc2ncc(C(F)(F)F)c(Nc3ccccc3)n2)cc1	750	490	–
CC(C)n1c(=O)n(-c2ccccc2)c2nc(Nc3ccccc3)ncc21	–	2900	inhibition [4]: 71%
O=C(O)c1ccc(Nc2ncc(-c3ccncc3)c(Nc3ccccc3)n2)cc1	1870	540	–
COC(=O)COc1ccc(Nc2ncc([N+](=O)[O-])c(Nc3ccccc3)n2)cc1	–	–	inhibition [4]: 41%
O=c1n(-c2ccccc2)c2nc(Nc3ccccc3)ncc2n1C1CCCCC1	–	–	inhibition [3]: 16%; inhibition [4]: 14%
O=C(O)c1ccc(Nc2ncc3nnn(C45CC6CC(CC(C6)C4)C5)c3n2)cc1	80	75	IC50 (Aurora kinase A): 910 nM
CC(C)(C)n1c(=O)n(-c2ccccc2)c2nc(Nc3ccccc3)ncc21	–	2400	inhibition [3]: 88%; inhibition [4]: 93%
OC12CC3CC(C1)CC(n1nnc4cnc(N[C@H]5CC[C@H](O)CC5)nc41)(C3)C2	444	744	inhibition [5]: 23%
OC12CC3CC(C1)CC(Nc1nc(N[C@H]4CC[C@H](O)CC4)ncc1F)(C3)C2	1500	–	–
O=C(O)c1ccc(Nc2ncc([N+](=O)[O-])c(NC34CC5CC(CC(O)(C5)C3)C4)n2)cc1	4.5	3	IC50 (Aurora kinase A): 156 nM

Continued, in another order:

IC50 [1] [nM]	IC50 [2] [nM]	Structure (SMILES)	other results
–	4000	O=C(O)c1ccc(Nc2ncc3[nH]c(=O)n(-c4ccccc4)c3n2)cc1	inhibition [3]: 93%; inhibition [4]: 88%
3760	4170	O=C(O)c1ccc(Nc2ncc(F)c(Nc3ccccc3)n2)cc1	–
–	1700	Cn1c(=O)n(-c2ccccc2)c2nc(Nc3ccccc3)ncc21	inhibition [3]: 94%; inhibition [4]: 96%
1900	760	COc1nn(-c2ccccc2)c2nc(Nc3ccc(C(=O)O)cc3)ncc12	–
204	477	COC(=O)COc1ccc(Nc2ncc3nnn(-c4ccccc4)c3n2)cc1	–
2850	1170	O=C(O)c1ccc(Nc2ncc(C3C=NN=N3)c(Nc3ccccc3)n2)cc1 (stereo not drawn)	–
270	150	O=C(O)c1ccc(Nc2ncc([N+](=O)[O-])c(Nc3ccccc3)n2)cc1	IC50 (Aurora kinase A): 346 nM
1020	960	Cn1c(=O)c2cnc(Nc3ccc(C(=O)O)cc3)nc2n1-c1ccccc1	–
23	23	O=C1OC(Nc2ncc3nnn(-c4ccccc4)c3n2)c2ccccc21 (stereo not drawn)	IC50 (Aurora kinase A): 7300 nM
13	7	O=C(O)/C=C\c1ccc(Nc2ncc3nnn(-c4ccccc4)c3n2)cc1	IC50 (Aurora kinase A): 112 nM
6700	3500	O=C1CN(c2ccccc2)c2nc(Nc3ccc(C(=O)O)cc3)ncc2N1	–
20	24	O=C(O)CCc1ccc(Nc2ncc3nnn(-c4ccccc4)c3n2)cc1	IC50 (Aurora kinase A): 375 nM
–	3200	O=C(O)c1ccc(Nc2ncc(Br)c(Nc3ccccc3)n2)cc1	inhibition [3]: 82%
9	13	O=C(O)COc1ccc(Nc2ncc3nnn(-c4ccccc4)c3n2)cc1	IC50 (Aurora kinase A): 128 nM
123	279	O[C@H]1CC[C@H](Nc2ncc3nnn(-c4ccccc4)c3n2)CC1	inhibition [5]: 25%
350	180	O=C(O)c1ccc(Nc2ncc3c(Cl)nn(-c4ccccc4)c3n2)cc1	–
32	49	O=C(O)c1ccc(Nc2ncc3nnn(-c4ccccc4)c3n2)cc1	IC50 (Aurora kinase A): 292 nM
330	628	c1ccc(Nc2ncc3nnn(-c4ccccc4)c3n2)cc1	–

Source: ChEMBL document CHEMBL1145583, “2,5-Diaminopyrimidines and 3,5-disubstituted azapurines as inhibitors of glycogen synthase kinase-3 (GSK-3)” (Bioorg Med Chem Lett, 2008)
